From PubChem BioAssay AID1963984 (Molecular Pharmacology Branch, DTP, NCI, 2024)
“And” between values parts separate entries of the source, which are not always exact repeats. Equal values may be shown once.

Tested on: 233499-124-R-J3-PDC spheroids with HUVEC/MSC, viability
Test: Anticancer human tumor 233499-124-R-J3-PDC patient-derived colon adenocarcinoma cell line growth inhibition [PI3K]
Conditions: for viability, T/C: stronger effect = lower value
Procedure, shortened: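 High-throughput combination screen: PI3K inhibitors crossed with targeted small molecules on complex spheroids of tumor cells, HUVEC and MSCs at 37 degrees C, 5% CO2. Top concentration was at or near clinical Cmax (otherwise 10 microM), with half-log decrements.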

[1] = curve of first compound, second compound 0.0316 µM
[2] = curve of first compound, second compound 0.1 µM
[3] = curve of first compound, second compound 0.316 µM
[4] = curve of first compound, second compound 1 µM
[5] = curve of first compound, second compound 3.16 µM
[6] = curve of first compound, second compound 10 µM
[7] = second compound 0.0316 µM, first compound 0.0316 µM
[8] = second compound 0.0316 µM, first compound 0.1 µM
[9] = second compound 0.1 µM, first compound 0.0316 µM
[10] = second compound 0.1 µM, first compound 0.1 µM
[11] = second compound 0.316 µM, first compound 0.0316 µM
[12] = second compound 0.316 µM, first compound 0.1 µM
[13] = second compound 1 µM, first compound 0.0316 µM
[14] = second compound 1 µM, first compound 0.1 µM
[15] = second compound 3.16 µM, first compound 0.0316 µM
[16] = second compound 3.16 µM, first compound 0.1 µM
[17] = second compound 10 µM, first compound 0.0316 µM
[18] = second compound 10 µM, first compound 0.1 µM
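Further: spheroids exposed to agents for seven days before readout.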
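Wherever viability, T/C is given: percent viability relative to DMSO vehicle control taken as 100%.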

For CC(=O)c1c(C)c2cnc(Nc3ccc(N4CCNCC4)cn3)nc2n(C2CCCC2)c1=O + Cc1nc(NC(=O)N2CCCC2C(N)=O)sc1-c1ccnc(C(C)(C)C(F)(F)F)c1, the IC50 [1] was greater than 100 nM, the IC50 [2] was greater than 100 nM and the IC50 [3] was 65.9 nM. For the same compound, the IC50 [4] was 58.2 nM, the IC50 [5] was 42 nM and the IC50 [6] was less than 0.316 nM. For the same compound, the viability, T/C (second compound 0.0316 µM, first compound 0.000316 µM) was 98.6%, the viability, T/C (second compound 0.0316 µM, first compound 0.001 µM) was 93.2% and the viability, T/C (second compound 0.0316 µM, first compound 0.00316 µM) was 65.5%. For the same compound, the viability, T/C (second compound 0.0316 µM, first compound 0.01 µM) was 79.9%, the viability, T/C [7] was 99.6% and the viability, T/C [8] was 79.1%. The viability, T/C (second compound 0.1 µM, first compound 0.000316 µM) was 90.2%, the viability, T/C (second compound 0.1 µM, first compound 0.001 µM) was 90.2% and the viability, T/C (second compound 0.1 µM, first compound 0.00316 µM) was 74.7%. It also gave a viability, T/C (second compound 0.1 µM, first compound 0.01 µM) of 98%, a viability, T/C [9] of 83% and a viability, T/C [10] of 54.5%. The viability, T/C (second compound 0.316 µM, first compound 0.000316 µM) was 77.7%, the viability, T/C (second compound 0.316 µM, first compound 0.001 µM) was 89.7% and the viability, T/C (second compound 0.316 µM, first compound 0.00316 µM) was 86.6%. The viability, T/C (second compound 0.316 µM, first compound 0.01 µM) was 75%, the viability, T/C [11] was 58.5% and the viability, T/C [12] was 45.3%. It also gave a viability, T/C (second compound 1 µM, first compound 0.000316 µM) of 79.5%, a viability, T/C (second compound 1 µM, first compound 0.001 µM) of 67.9% and a viability, T/C (second compound 1 µM, first compound 0.00316 µM) of 80.6%. The viability, T/C (second compound 1 µM, first compound 0.01 µM) was 70%, the viability, T/C [13] was 74.9% and the viability, T/C [14] was 28.3%. It also gave a viability, T/C (second compound 3.16 µM, first compound 0.000316 µM) of 53.3%, a viability, T/C (second compound 3.16 µM, first compound 0.001 µM) of 57.2% and a viability, T/C (second compound 3.16 µM, first compound 0.00316 µM) of 76.4%. It also gave a viability, T/C (second compound 3.16 µM, first compound 0.01 µM) of 37.5%, a viability, T/C [15] of 61.8% and a viability, T/C [16] of 28.2%. The viability, T/C (second compound 10 µM, first compound 0.000316 µM) was 27.8%, the viability, T/C (second compound 10 µM, first compound 0.001 µM) was 26.9% and the viability, T/C (second compound 10 µM, first compound 0.00316 µM) was 27.5%. The viability, T/C (second compound 10 µM, first compound 0.01 µM) was 34.6%, the viability, T/C [17] was 36.9% and the viability, T/C [18] was 28%.
For Cn1ncc(Cl)c1-c1cc(C(=O)NC(CN)Cc2cccc(F)c2)sc1Cl (centres undefined), the viability, T/C (compound 0.0316 µM) was 85.8% [middle of 4 runs], the viability, T/C (compound 0.1 µM) was 102% (2×) and 85.4% and 93.9% and the viability, T/C (compound 0.316 µM) was 86.2% [middle of 4 runs]. The viability, T/C (compound 1 µM) was 89.6% [middle of 4 runs], the viability, T/C (compound 3.16 µM) was 63.6% [middle of 4 runs] and the viability, T/C (compound 10 µM) was 32.4% [middle of 4 runs]. The IC50 (curve of compound) was 4.62 µM [middle of 4 runs].
Work on CC1(C)CCC(CN2CCN(c3ccc(C(=O)NS(=O)(=O)c4ccc(NCC5CCOCC5)c([N+](=O)[O-])c4)c(Oc4cnc5[nH]ccc5c4)c3)CC2)=C(c2ccc(Cl)cc2)C1 + Cc1nc(NC(=O)N2CCCC2C(N)=O)sc1-c1ccnc(C(C)(C)C(F)(F)F)c1 yielded an IC50 [1] of 6180 nM, an IC50 [2] of 5470 nM and an IC50 [3] of 5380 nM. The IC50 [4] was 4330 nM, the IC50 [5] was 2610 nM and the IC50 [6] was less than 31.6 nM. The viability, T/C [7] was 110%, the viability, T/C [8] was 104% and the viability, T/C (second compound 0.0316 µM, first compound 0.316 µM) was 107%. The viability, T/C (second compound 0.0316 µM, first compound 1 µM) was 115%, the viability, T/C (second compound 0.0316 µM, first compound 3.16 µM) was 106% and the viability, T/C (second compound 0.0316 µM, first compound 10 µM) was 10.1%. For the same compound, the viability, T/C [9] was 112%, the viability, T/C [10] was 98.1% and the viability, T/C (second compound 0.1 µM, first compound 0.316 µM) was 66.5%. It also gave a viability, T/C (second compound 0.1 µM, first compound 1 µM) of 109%, a viability, T/C (second compound 0.1 µM, first compound 3.16 µM) of 93% and a viability, T/C (second compound 0.1 µM, first compound 10 µM) of 2.57%. For the same compound, the viability, T/C [11] was 99.9%, the viability, T/C [12] was 89.3% and the viability, T/C (second compound 0.316 µM, first compound 0.316 µM) was 76%. The viability, T/C (second compound 0.316 µM, first compound 1 µM) was 88.3%, the viability, T/C (second compound 0.316 µM, first compound 3.16 µM) was 88.9% and the viability, T/C (second compound 0.316 µM, first compound 10 µM) was 5.24%. For the same compound, the viability, T/C [13] was 97.6%, the viability, T/C [14] was 73.7% and the viability, T/C (second compound 1 µM, first compound 0.316 µM) was 80.8%. The viability, T/C (second compound 1 µM, first compound 1 µM) was 82.8%, the viability, T/C (second compound 1 µM, first compound 3.16 µM) was 67% and the viability, T/C (second compound 1 µM, first compound 10 µM) was 4.35%. It also gave a viability, T/C [15] of 61.9%, a viability, T/C [16] of 51.9% and a viability, T/C (second compound 3.16 µM, first compound 0.316 µM) of 61.8%. For the same compound, the viability, T/C (second compound 3.16 µM, first compound 1 µM) was 62.4%, the viability, T/C (second compound 3.16 µM, first compound 3.16 µM) was 48.1% and the viability, T/C (second compound 3.16 µM, first compound 10 µM) was 1.21%. For the same compound, the viability, T/C [17] was 32.1%, the viability, T/C [18] was 26.4% and the viability, T/C (second compound 10 µM, first compound 0.316 µM) was 22.6%. The viability, T/C (second compound 10 µM, first compound 1 µM) was 31.1%, the viability, T/C (second compound 10 µM, first compound 3.16 µM) was 9.66% and the viability, T/C (second compound 10 µM, first compound 10 µM) was 2.29%.
For CNC(=O)c1ccc(N2C(=S)N(c3ccc(C#N)c(C(F)(F)F)c3)C(=O)C2(C)C)cc1F, the viability, T/C (compound 0.0316 µM) was 93% [middle of 4 runs], the viability, T/C (compound 0.1 µM) was 94.5% [middle of 4 runs] and the viability, T/C (compound 0.316 µM) was 107% [middle of 4 runs]. For the same compound, the viability, T/C (compound 1 µM) was 93.1% [middle of 4 runs], the viability, T/C (compound 3.16 µM) was 92.1% [middle of 4 runs] and the IC50 (curve of compound) was greater than 10000 nM.
Compound Cn1cnc2c(F)c(Nc3ccc(Br)cc3Cl)c(C(=O)NOCCO)cc21 + CC(Nc1ncnc2nc[nH]c12)c1cc2cccc(Cl)c2c(=O)n1-c1ccccc1 has an IC50 [1] of 600 nM, an IC50 [2] of 603 nM and an IC50 [3] of 511 nM. The IC50 [4] was 281 nM, the IC50 [5] was 275 nM and the IC50 [6] was 455 nM. The viability, T/C (second compound 0.0316 µM, first compound 0.00949 µM) was 68.9%, the viability, T/C (second compound 0.0316 µM, first compound 0.03 µM) was 69.2% and the viability, T/C (second compound 0.0316 µM, first compound 0.0949 µM) was 66%. It also gave a viability, T/C (second compound 0.0316 µM, first compound 0.3 µM) of 70.9%, a viability, T/C (second compound 0.0316 µM, first compound 0.949 µM) of 37.6% and a viability, T/C (second compound 0.0316 µM, first compound 3 µM) of 28.6%. The viability, T/C (second compound 0.1 µM, first compound 0.00949 µM) was 83.8%, the viability, T/C (second compound 0.1 µM, first compound 0.03 µM) was 73.6% and the viability, T/C (second compound 0.1 µM, first compound 0.0949 µM) was 64.9%. The viability, T/C (second compound 0.1 µM, first compound 0.3 µM) was 67.6%, the viability, T/C (second compound 0.1 µM, first compound 0.949 µM) was 40.3% and the viability, T/C (second compound 0.1 µM, first compound 3 µM) was 19.5%. It also gave a viability, T/C (second compound 0.316 µM, first compound 0.00949 µM) of 90%, a viability, T/C (second compound 0.316 µM, first compound 0.03 µM) of 76.5% and a viability, T/C (second compound 0.316 µM, first compound 0.0949 µM) of 61.1%. For the same compound, the viability, T/C (second compound 0.316 µM, first compound 0.3 µM) was 64%, the viability, T/C (second compound 0.316 µM, first compound 0.949 µM) was 41% and the viability, T/C (second compound 0.316 µM, first compound 3 µM) was 31%. It also gave a viability, T/C (second compound 1 µM, first compound 0.00949 µM) of 96.6%, a viability, T/C (second compound 1 µM, first compound 0.03 µM) of 73.4% and a viability, T/C (second compound 1 µM, first compound 0.0949 µM) of 53%. The viability, T/C (second compound 1 µM, first compound 0.3 µM) was 51.5%, the viability, T/C (second compound 1 µM, first compound 0.949 µM) was 51.7% and the viability, T/C (second compound 1 µM, first compound 3 µM) was 22.4%. For the same compound, the viability, T/C (second compound 3.16 µM, first compound 0.00949 µM) was 76.8%, the viability, T/C (second compound 3.16 µM, first compound 0.03 µM) was 76.2% and the viability, T/C (second compound 3.16 µM, first compound 0.0949 µM) was 64.7%. For the same compound, the viability, T/C (second compound 3.16 µM, first compound 0.3 µM) was 48.9%, the viability, T/C (second compound 3.16 µM, first compound 0.949 µM) was 40% and the viability, T/C (second compound 3.16 µM, first compound 3 µM) was 37.1%. It also gave a viability, T/C (second compound 10 µM, first compound 0.00949 µM) of 74.6%, a viability, T/C (second compound 10 µM, first compound 0.03 µM) of 52.1% and a viability, T/C (second compound 10 µM, first compound 0.0949 µM) of 72.8%. For the same compound, the viability, T/C (second compound 10 µM, first compound 0.3 µM) was 50%, the viability, T/C (second compound 10 µM, first compound 0.949 µM) was 43.4% and the viability, T/C (second compound 10 µM, first compound 3 µM) was 25.3%.
